Among the data in patent US20240116933A1, “INDAZOLE AND PYRAZOLOPYRIDINE COMPOUNDS AS INHIBITORS OF NLRP3 INFLAMMASOME” (BioAge Labs, Inc., priority 2022, published 2024) are IC50 values, retold here.

Molecules are shown by their SMILES. pIC50: −log10 of the molar value.

T1 sequence (Q96P20 whole entry): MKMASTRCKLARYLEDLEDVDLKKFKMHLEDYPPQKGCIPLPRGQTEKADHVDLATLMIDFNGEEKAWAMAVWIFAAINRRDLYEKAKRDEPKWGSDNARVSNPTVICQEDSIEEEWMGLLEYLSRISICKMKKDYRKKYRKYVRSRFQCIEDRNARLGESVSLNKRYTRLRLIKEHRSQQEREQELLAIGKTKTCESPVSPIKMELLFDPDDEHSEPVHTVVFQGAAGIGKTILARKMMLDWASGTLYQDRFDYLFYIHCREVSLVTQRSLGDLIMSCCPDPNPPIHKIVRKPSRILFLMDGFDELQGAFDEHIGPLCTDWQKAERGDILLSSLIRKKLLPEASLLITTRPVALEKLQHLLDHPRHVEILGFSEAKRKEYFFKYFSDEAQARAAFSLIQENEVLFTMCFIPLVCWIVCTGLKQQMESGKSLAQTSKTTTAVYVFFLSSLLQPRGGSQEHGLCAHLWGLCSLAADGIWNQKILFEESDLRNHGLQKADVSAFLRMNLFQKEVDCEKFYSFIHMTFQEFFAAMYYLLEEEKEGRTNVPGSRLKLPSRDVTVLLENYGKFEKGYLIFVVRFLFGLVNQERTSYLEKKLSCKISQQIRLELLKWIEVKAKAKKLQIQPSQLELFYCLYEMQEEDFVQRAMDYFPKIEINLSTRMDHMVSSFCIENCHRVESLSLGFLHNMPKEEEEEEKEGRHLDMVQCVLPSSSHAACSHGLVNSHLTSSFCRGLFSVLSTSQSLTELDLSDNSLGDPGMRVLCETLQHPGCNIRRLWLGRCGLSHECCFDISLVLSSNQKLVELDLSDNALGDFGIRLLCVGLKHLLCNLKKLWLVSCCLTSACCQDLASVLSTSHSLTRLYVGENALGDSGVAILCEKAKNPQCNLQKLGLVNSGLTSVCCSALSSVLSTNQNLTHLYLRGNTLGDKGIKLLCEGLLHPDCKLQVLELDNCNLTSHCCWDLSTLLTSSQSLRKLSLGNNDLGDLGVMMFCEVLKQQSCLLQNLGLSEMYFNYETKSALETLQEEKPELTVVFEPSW

The assay concerns the target T1, NLRP3 inflammasome (Homo sapiens, UniProt Q96P20).
T1 construct: endogenous in cells; host or cells: THP-1 cells (PMA-differentiated, LPS-primed, nigericin-stimulated)
The experiment in a line: THP-1 Cell-Based NLRP3 Activation Assay. The following applies: THP-1 cells, PMA, 100 ng/mL LPS 3 hrs, 30 min pre-incubation with test compound, 10 μM nigericin 1 hr. On the procedure:
THP-1 cells are cultured in complete media (CM) until they reach logarithmic growth and achieve a viability >90%. CM is composed of RPMI-1640 (+Glutamax)/10% fetal bovine serum/55 μM β-mercaptoethanol/pen/strep. Cells are spun down and resuspended to 1,000,000 cells/mL in CM containing either 20 nM or 500 nM PMA. 150,000 cells […] are then added to each well of a 96-well TC plate and incubated for either 24 hr or 3 hr, respectively, in a standard cell culture incubator (37° C.; 5% CO2). After this incubation, the plate is tilted and media carefully removed. 200 μL of CM containing 100 ng/mL LPS is then added to the wells and the cells incubated an additional 3 hrs. The media is again removed and replaced with Opti-Mem medium containing pre-determined dilutions of test compounds in replicate wells. After a 30 min pre-incubation with test compound, 10 μM nigericin (final concentration) in Opti-Mem medium with the corresponding concentration of compound is added to the wells for an additional 1 hr. Positive control wells contain 10 μM nigericin in Opti-Mem in the absence of test compound, while negative control wells contain Opti-Mem only. […] Once supernatants are removed, the relative viability of adherent cells in the 96-well TC plate are determined using a CellTiter-Glo® luminescent cell viability assay (Promega).
As to `CCOc1nc(C(=O)N(C)[C@H](C)c2ccc(CF)c3cn[nH]c23)ccc1-c1cccc(F)c1` [Compound 075], the pIC50 was greater than 4.30. Under `CCOc1cc(C(=O)N(C)Cc2cnc(C(C)O)c3cn[nH]c23)cc(F)c1-c1cc(F)cc(C#N)c1` (stereo not shown) [Compound 076] stands greater than 6.00; under `CCOc1cc(C(=O)N(C)Cc2c(COC)ncc3cn[nH]c23)ccc1-c1cccc(F)c1` [Compound 077], greater than 6.00; under `Cc1nc(CO)c2cn[nH]c2c1CN(C)C(=O)c1ccc(-c2cccc(C#N)c2)c(OC2CC2)c1` [Compound 078], greater than 6.00. As for `CCOc1cc(C(=O)N(C)Cc2c(C)nc(C(C)O)c3cn[nH]c23)ccc1-c1cccc(F)c1` (stereo not shown) [Compound 079], the figure is greater than 6.00; as for `CC(O)c1ncc(CN(C)C(=O)c2ccc(-c3cccc(C#N)c3)c(OC3CC3)c2)c2[nH]ncc12` (stereo not shown) [Compound 080], greater than 4.30. As for `CCOc1cc(C(=O)N(C)Cc2cnc(C(C)O)c3cn[nH]c23)cc(F)c1-c1cc(F)cs1` (stereo not shown) [Compound 081], the figure is greater than 6.00; as for `CCN(Cc1cnc(CO)c2cn[nH]c12)C(=O)c1ccc(-c2cccc(C#N)c2)c(OC2CC2)c1` [Compound 082], greater than 4.30; as for `CC(O)c1ncc(CN(C)C(=O)c2ccc(-c3cccs3)c(OC3CC3)c2)c2[nH]ncc12` (stereo not shown) [Compound 083], greater than 5.00.

Turning to `CN(Cc1cnc(CO)c2cn[nH]c12)C(=O)c1ccc(-c2cccc(Cl)c2)c(OC2CCC2)c1` [Compound 084], the pIC50 was greater than 6.00. Under `CN(Cc1cnc(CO)c2cn[nH]c12)C(=O)c1ccc(-c2cccs2)c(OC2CC2)c1` [Compound 085] stands greater than 5.00; under `CCN(Cc1cnc(CO)c2cn[nH]c12)C(=O)c1cc(F)c(-c2cccc(C#N)c2)c(OC2CC2)c1` [Compound 087], greater than 6.00; under `CCOc1cc(C(=O)N(C)Cc2cnc(C(C)O)c3cn[nH]c23)cc(F)c1-c1ccsc1` (stereo not shown) [Compound 088], greater than 6.00.

On to `CCOc1cc(C(=O)N(C)Cc2cnc(C(C)O)c3cn[nH]c23)cc(F)c1-c1cccc(C#N)c1` (stereo not shown) [Compound 090], for which the pIC50 was greater than 5.00. Under `CC(O)c1ncc(CN(C)C(=O)c2cc(F)c(-c3cccc(C#N)c3)c(OC3CC3)c2)c2[nH]ncc12` (stereo not shown) [Compound 091] stands greater than 6.00; under `CCN(Cc1cnc(CO)c2cn[nH]c12)C(=O)c1cc(F)c(-c2cccc(Cl)c2)c(OC2CC2)c1` [Compound 092], greater than 6.00. As for `CCOc1cc(C(=O)N(C)Cc2cnc(CO)c3cn[nH]c23)cc(F)c1-c1cc(F)cs1` [Compound 093], the figure is greater than 6.00; as for `CCOc1cc(C(=O)N(C)Cc2cnc(C(C)O)c3cn[nH]c23)cc(F)c1-c1cc(F)cc(Cl)c1` (stereo not shown) [Compound 096], greater than 6.00. Under `CCOc1cc(C(=O)N(CC)Cc2cnc(CO)c3cn[nH]c23)ccc1-c1cccc(F)c1` [Compound 097] stands greater than 6.00; under `CCOc1cc(C(=O)N(C)Cc2cc(O)cc3cn[nH]c23)cc(F)c1-c1cccc(F)c1` [Compound 098], greater than 6.00; under `CN(Cc1cc(O)cc2cn[nH]c12)C(=O)c1cc(F)c(-c2cccc(F)c2)c(OC2CC2)c1` [Compound 099], greater than 6.00. For `CCN(Cc1cnc(CO)c2cn[nH]c12)C(=O)c1ccc(-c2cccc(F)c2)c(OC2CC2)c1` [Compound 100], the pIC50 was greater than 6.00. As for `CC(O)c1ncc(CN(C)C(=O)c2ccc(-c3cccc(Cl)c3)c(OC3CC3)c2)c2[nH]ncc12` (stereo not shown) [Compound 101], the figure is greater than 6.00; as for `CCOc1cc(C(=O)N(CC)Cc2cnc(CO)c3cn[nH]c23)ccc1-c1cccc(C#N)c1` [Compound 103], greater than 5.00; as for `CN(Cc1cnc(CF)c2cn[nH]c12)C(=O)c1cc(F)c(-c2cccs2)c(OC2CC2)c1` [Compound 105], greater than 6.00.

On to `CCOc1cc(C(=O)N(C)Cc2cnc(CO)c3cn[nH]c23)cc(F)c1-c1cccs1` [Compound 106], for which the negative logarithm of the IC50 (pIC50) is greater than 6.00. Under `CCOc1cc(C(=O)N(C)Cc2cnc(CO)c3cn[nH]c23)cc(F)c1-c1ccsc1` [Compound 107] stands greater than 6.00; under `CN(Cc1cnc(CO)c2cn[nH]c12)C(=O)c1ccc(-c2cccc(Cl)c2)c(OC2COC2)c1` [Compound 108], greater than 6.00. Under `CCC(c1cncc2cn[nH]c12)N(C)C(=O)c1ccc(-c2cccc(F)c2)c(OC2CC2)c1` (stereo not shown) [Compound 109] stands greater than 6.00. Under `CN(Cc1cc(O)cc2cn[nH]c12)C(=O)c1cc(F)c(-c2cccc(C#N)c2)c(OC2CC2)c1` [Compound 111] stands greater than 6.00. Molecule `CCOc1cc(C(=O)N(C)Cc2cc(O)cc3cn[nH]c23)cc(F)c1-c1ccccc1` [Compound 112] had a negative-log IC50 (pIC50) greater than 6.00. Molecule `CN(Cc1cc(O)cc2cn[nH]c12)C(=O)c1cc(F)c(-c2cccc(Cl)c2)c(OC2CC2)c1` [Compound 113] gave a negative-log IC50 (pIC50) greater than 6.00.

Turning to `CN(Cc1cc(O)cc2cn[nH]c12)C(=O)c1cc(F)c(-c2ccccc2)c(OC2CC2)c1` [Compound 114], the negative logarithm of the IC50 (pIC50) is greater than 6.00. With `CC(O)c1ncc(CN(C)C(=O)c2cc(F)c(-c3cccc(Cl)c3)c(OC3CC3)c2)c2[nH]ncc12` (stereo not shown) [Compound 115], the pIC50 was greater than 6.00. Under `CCOc1cc(C(=O)N(C)C(C)c2ccc(F)c3cn[nH]c23)ccc1-c1cccc(F)c1` (stereo not shown) [Compound 116] stands greater than 6.00. `CCOc1cc(C(=O)N(C)C(CC)c2cncc3cn[nH]c23)ccc1-c1cccc(F)c1` (stereo not shown) [Compound 117] had a pIC50 greater than 6.00. As for `CCOc1cc(C(=O)N(C)Cc2cnc(C(C)O)c3cn[nH]c23)cc(F)c1-c1cccc(F)c1` (stereo not shown) [Compound 118], the figure is greater than 6.00; as for `Cc1nc(C)c2cn[nH]c2c1CN(C)C(=O)c1cc(F)c(-c2cccc(F)c2)c(OC2CC2)c1` [Compound 119], greater than 6.00. As to `Cc1nc(C)c2cn[nH]c2c1CN(C)C(=O)c1cc(F)c(-c2cccc(Cl)c2)c(OC2CC2)c1` [Compound 120], the pIC50 was greater than 6.00. Under `CCOc1cc(C(=O)N(C)Cc2cccc3cn[nH]c23)sc1-c1cccc(F)c1` [Compound 121] stands greater than 6.00; under `Cc1ncc(CNC(=O)c2cc(F)c(-c3cccc(Cl)c3)c(OC3CC3)c2)c2[nH]ncc12` [Compound 122], greater than 6.00; under `CCOc1nc(C(=O)N(C)[C@@H](C)c2cnc(C)c3cn[nH]c23)ccc1-c1cccc(F)c1` [Compound 123], greater than 6.00. Under `CCOc1nc(C(=O)N(C)[C@H](C)c2cnc(C)c3cn[nH]c23)ccc1-c1cccc(F)c1` [Compound 124] stands greater than 4.30; under `CCOc1cc(C(=O)N(C)Cc2cnc(C)c3cn[nH]c23)cc(CF)c1-c1cccc(F)c1` [Compound 125], greater than 5.00; under `CCOc1cc(C(=O)N(C)Cc2cccc3[nH]ncc23)ccc1-c1cccc(C#N)c1` [Compound 126], greater than 6.00. Consider `CCOc1nc(C(=O)N(C)Cc2cc(O)cc3cn[nH]c23)ccc1-c1cccc(F)c1` [Compound 128], for which the negative-log IC50 (pIC50) was greater than 5.00. As for `CCOc1cc(C(=O)N(C)Cc2cccc3[nH]ncc23)ccc1-c1cccc(F)c1` [Compound 129], the figure is greater than 5.00. Regarding `CCOc1cc(C(=O)N(C)Cc2cnc(CO)c3cn[nH]c23)cc(F)c1-c1cc(F)cc(F)c1` [Compound 131], the negative logarithm of the IC50 (pIC50) is greater than 6.00. With `CC(C)Oc1cc(C(=O)N(C)Cc2cnc(CO)c3cn[nH]c23)ccc1-c1cccc(F)c1` [Compound 134], the negative logarithm of the IC50 (pIC50) was greater than 6.00.

For `CCOc1cc(C(=O)N(C)Cc2c(C(C)O)ncc3cn[nH]c23)ccc1-c1cccc(F)c1` (stereo not shown) [Compound 135], the pIC50 was greater than 6.00. As for `CCCOc1cc(C(=O)N(C)Cc2cnc(CO)c3cn[nH]c23)cc(F)c1-c1cc(F)cc(F)c1` [Compound 136], the negative logarithm of the IC50 (pIC50) is greater than 6.00. The molecule `CN(Cc1cnc(CO)c2cn[nH]c12)C(=O)c1ccc(-c2cccc(F)c2)c(OC2CCC2)c1` [Compound 137] gave a negative-log IC50 (pIC50) greater than 6.00. As for `CCCOc1cc(C(=O)N(C)Cc2cnc(CO)c3cn[nH]c23)cc(F)c1-c1cccc(F)c1` [Compound 138], the figure is greater than 6.00. `CN(Cc1c(CO)ncc2cn[nH]c12)C(=O)c1cc(F)c(-c2cccc(F)c2)c(OC2CC2)c1` [Compound 139] showed a negative logarithm of the IC50 (pIC50) greater than 6.00.

The molecule `CCOc1cc(C(=O)N(C)Cc2cnc(C)c3cn[nH]c23)ccc1-c1cc(F)cs1` [Compound 140] showed a negative-log IC50 (pIC50) greater than 5.00. As for `CC(C)Oc1cc(C(=O)N(C)Cc2cnc(C(C)O)c3cn[nH]c23)ccc1-c1cccc(Cl)c1` (stereo not shown) [Compound 141], the figure is greater than 6.00; as for `CC(C)Oc1cc(C(=O)N(C)Cc2cnc(CO)c3cn[nH]c23)ccc1-c1cc(F)cc(F)c1` [Compound 142], greater than 6.00.

Turning to `CC(C)Oc1cc(C(=O)N(C)Cc2cnc(CO)c3cn[nH]c23)ccc1-c1cccc(Cl)c1` [Compound 143], the pIC50 was greater than 6.00.

Consider `CN(Cc1c(CO)ncc2cn[nH]c12)C(=O)c1ccc(-c2cccc(Cl)c2)c(OC2CC2)c1` [Compound 144], for which the pIC50 is greater than 6.00. As for `CN(Cc1c(CO)ncc2cn[nH]c12)C(=O)c1cc(F)c(-c2cccc(Cl)c2)c(OC2CC2)c1` [Compound 145], the figure is greater than 6.00; as for `CC(C)Oc1cc(C(=O)N(C)Cc2cnc(C(C)O)c3cn[nH]c23)ccc1-c1cc(F)cc(F)c1` (stereo not shown) [Compound 146], greater than 6.00.

What is called pIC50 is −log10 of the IC50, conventionally taken in molar units. A low value points to a high IC50.
